The nature of data set [1]: Distribution coefficient (log D6.8), pH 6.8 isotonic phosphate buffer/n-octanol. It counts as physicochemical. Particulars: n-octanol/pH 6.8 isotonic phosphate buffer; 1-octanol/isotonic phosphate buffer (pH 6.8). On the procedure:
Distribution coefficients (log D6.8) of the PARP inhibitors and their derivatives were measured using a pH 6.8 isotonic phosphate buffer/n-octanol system, as described in a previous paper.

Another data set relates to PARP. Also on record: method as in PMID 30196390, PMID 17235412. The note with it: cited from earlier work.
Data set [2] deals with murine macrophage RAW264.7 cells challenged with LPS. Description: LPS-mediated induction of iNOS and COX-2 in RAW264.7 cells (Western blot). It counts as cell-based. Particulars: pretreated 1 h with 5-ASA (20 mM), 3-AB (1 mM), 5-AIQ (10 μM), then LPS 24 h. On the procedure: Tissue samples (0.2 g/mL) were homogenized in pre-chilled radioimmunoprecipitation assay buffer (50 mM Tris-HCl [pH 7.4], 1 mM EDTA, 0.7% Na deoxycholate, 1% NP-40, 150 mM NaCl, 0.3 μM aprotinin, 1 μM pepstatin, and 1 mM phenylmethylsulfonyl fluoride). The homogenates were centrifuged at 10,000× g at 4 °C for 10 min, followed by agitation on ice for 30 min. Whole and nuclear cell lysates were prepared as described previously. The protein concentrations in the lysates were determined using bicinchoninic acid (Thermo Fisher Scientific, Waltham, MA, USA) according to the manufacturer’s instructions. Cell and tissue lysates were separated by SDS-PAGE on 10% and 7.5% gels. Nrf2, HO-1, cyclooxygenase-2 (COX-2), and inducible nitric oxide synthase (iNOS) proteins were detected using the following antibodies: anti-Nrf2 (sc-365949, Santa Cruz Biotechnology, Dallas, TX, USA), anti-HO-1 (sc-136961, Santa Cruz Biotechnology), anti-COX-2 (sc-365374, Santa Cruz Biotechnology), anti-iNOS (NOS-2) antibody (sc-7271, Santa Cruz Biotechnology), and secondary antibodies corresponding to the primary antibodies (Santa Cruz Biotechnology). Protein bands were visualized using SuperSignal chemiluminescence substrate (Thermo Fisher Scientific). α-Tubulin were detected using antibodies specific to each protein (Santa Cruz Biotechnology) as loading controls. […]

Data set [3] can be described thus: Incubation in the cecal contents of rats (colonic activation). It counts as in vitro ADME, rat. Particulars: 1 mM, 10% cecal contents, under nitrogen. The text has this:
Male Sprague–Dawley rats (250–260 g) were euthanized using CO2 gas before a midline incision was made. The contents of the intestinal tract were collected from the small intestine and cecum obtained from each of three rats and were suspended in pH 6.8 isotonic phosphate buffer to prepare a 20% (w/v) suspension. To maintain anaerobic conditions in the cecum, the cecal contents were collected under a N2 atmosphere in an atmospheric bag (AtmosBag, Sigma, St. Louis, MO, USA). Derivatives of PARP inhibitors (2 mM) dissolved in pH 6.8 isotonic phosphate buffer (5 mL) were mixed with the cecal and small intestinal suspensions (5 mL) and then incubated at 37 °C. The cecal contents were incubated in nitrogen. At predetermined time intervals, a 0.5 mL portion of the mixture was transferred to a microtube and centrifuged at 10,000× g at 4 °C for 10 min. The supernatants (0.1 mL) were mixed with MeOH (0.9 mL), followed by centrifugation at 10,000× g at 4 °C for 7 min. The supernatants were filtered through a membrane filter (0.45 μm), and the concentrations of PARP inhibitors in the filtrates (20 μL) were analyzed using HPLC.

In another data set the test system is Caco-2 cell monolayer. Description: Cell permeability via Caco-2 cell monolayer. It counts as in vitro ADME. Particulars: 500 µM apical, concentration determined in basolateral compartment. On the procedure:
Caco-2 cells (4 × 10^5 per insert) were seeded and grown in Transwell 6-well inserts with a pore size of 0.4 μm (SPL Inc., Houston, TX, USA) until the transepithelial electrical resistance value (EMD Millipore, Billerica, MA, USA) reached 2000 Ω.cm^2. After removing the culture medium (DMEM) containing 1% penicillin/streptomycin from the basolateral and apical (insert) compartments, the apical compartment was filled with DMEM without phenol red (2 mL) containing PARP inhibitors and their derivatives (500 μM), whereas the basolateral compartment was filled with DMEM without phenol red (3 mL). At appropriate time intervals, the drug concentration in the basolateral compartment was determined by HPLC.

A short description of data set [4]: Drug concentration in the cecum after oral administration. Particulars: rats. It counts as in vivo, rat. On the procedure: Male Sprague–Dawley rats were fasted for 24 h but had access to water. 5-AIQ (10 mg/kg), AQSA-Glu (equivalent to 10 mg/kg 5-AIQ), 3-AB (17 mg/kg), and ABSA (equivalent to 17 mg/kg 3-AB) in PBS (1.0 mL) were administered to the rats by oral gavage. Blood samples were collected via cardiac puncture at 2, 4, and 8 h after the oral gavage. The blood samples were centrifuged at 10,000× g at 4 °C for 10 min to obtain the plasma (0.3 mL). The plasma (0.1 mL) was transferred to a centrifuge tube and mixed with methanol (0.9 mL). The supernatants were filtered through a membrane filter (0.45 μm), and then the filtrate (20.0 μL) was subjected to HPLC analysis. To determine drug concentrations in the cecum, cecal contents were collected at 2, 4, and 8 h after oral gavage and mixed with pH 6.8 isotonic phosphate buffer to make a 10% suspension, which was subjected to centrifugation at 10,000× g for 10 min at 4 °C. The supernatants (0.1 mL) were transferred to fresh microtubes, followed by the addition of MeOH (0.9 mL). After centrifugation at 10,000× g at 4 °C for 7 min and subsequent filtration through a membrane filter (0.45 μm), the concentrations of PARP inhibitors in the filtrates (20 μL) were analyzed using HPLC.

In a further data set the test system is DNBS-induced rat colitis. Description: DNBS-induced rat colitis model (anticolitic effects). It counts as in vivo. On the procedure:
DNBS-induced colitis was produced in rats as previously described. Two independent animal experiments were performed to evaluate the anticolitic effects of the drugs. For the first experiment, the rats were divided into the following five treatment groups (n = 5 per group): group 1 (normal group), oral gavage of 1.0 mL of PBS; group 2 (colitis group), oral gavage of 1.0 mL of PBS; group 3 (5-AIQ-treated colitis group), oral gavage of 5-AIQ (5 mg/kg) in 1.0 mL of PBS; group 4 [AQSA-Glu-treated colitis group (L)], oral gavage of AQSA-Glu (7.5 mg/kg, equivalent to 2.5 mg/kg of 5-AIQ) in 1.0 mL of PBS; and group 5 [AQSA-Glu-treated colitis group (H)], oral gavage of AQSA-Glu (15 mg/kg, equivalent to 5 mg/kg of 5-AIQ) in 1.0 mL of PBS. For the second experiment, the rats were divided into the following six treatment groups (n = 5 per group): group 1 (normal group), oral gavage of 1.0 mL of PBS; group 2 (colitis group), oral gavage of 1.0 mL of PBS; group 3 (SSZ-treated colitis group), oral gavage of SSZ (50 mg/kg) in 1.0 mL of PBS; group 4 (AQSA-Glu-treated colitis group), oral gavage of AQSA-Glu (15 mg/kg) in 1.0 mL of PBS; group 5 (mixture of AQSA-Glu + OSZ-treated colitis group), oral gavage of mixture of AQSA-Glu (15 mg/kg) and OSZ (19 mg/kg, half-equimolar to 50 mg/kg of SSZ) in 1.0 mL of PBS; and group 6 (ABSA-treated colitis group), oral gavage of ABSA (36 mg/kg, equivalent to 50 mg/kg of SSZ) in 1.0 mL of PBS. Three days after the induction of inflammation, each drug was orally administered to rats once daily, and the anticolitic effects were assessed 24 h after the sixth medication. The animal experiment scheme is shown in Supplementary Data S1. The colonic damage score was calculated using a scoring system modified from previously reported criteria. The modified scoring system is shown in Supplementary Data S2. Four independent observers who were blinded to the treatment conditions scored colonic damage according to the scoring system. Myeloperoxidase (MPO) activity in the distal colon (4 cm) was measured as described previously.
Tissue samples (0.2 g/mL) were homogenized in pre-chilled radioimmunoprecipitation assay buffer (50 mM Tris-HCl [pH 7.4], 1 mM EDTA, 0.7% Na deoxycholate, 1% NP-40, 150 mM NaCl, 0.3 μM aprotinin, 1 μM pepstatin, and 1 mM phenylmethylsulfonyl fluoride). The homogenates were centrifuged at 10,000× g at 4 °C for 10 min, followed by agitation on ice for 30 min. Whole and nuclear cell lysates were prepared as described previously. The protein concentrations in the lysates were determined using bicinchoninic acid (Thermo Fisher Scientific, Waltham, MA, USA) according to the manufacturer’s instructions.
Cell and tissue lysates were separated by SDS-PAGE on 10% and 7.5% gels. Nrf2, HO-1, cyclooxygenase-2 (COX-2), and inducible nitric oxide synthase (iNOS) proteins were detected using the following antibodies: anti-Nrf2 (sc-365949, Santa Cruz Biotechnology, Dallas, TX, USA), anti-HO-1 (sc-136961, Santa Cruz Biotechnology), anti-COX-2 (sc-365374, Santa Cruz Biotechnology), anti-iNOS (NOS-2) antibody (sc-7271, Santa Cruz Biotechnology), and secondary antibodies corresponding to the primary antibodies (Santa Cruz Biotechnology). Protein bands were visualized using SuperSignal chemiluminescence substrate (Thermo Fisher Scientific). α-Tubulin were detected using antibodies specific to each protein (Santa Cruz Biotechnology) as loading controls. Western blot images were quantified using Image Lab software (version 5.2 build 14; Bio-Rad, Hercules, CA, USA). The means of the quantified values are presented under each Western blot (n = 3 for cell experiments and n = 5 for animal experiments).
The levels of the inflammatory cytokine-induced neutrophil chemoattractant-3 (CINC-3) in the inflamed distal colon were determined using a CINC-3 ELISA kit (R&D Systems, Minneapolis, MN, USA). […]

Setting [5] is: second experiment: SSZ 50 mg/kg, AQSA-Glu 15 mg/kg, AQSA-Glu 15 mg/kg + OSZ 19 mg/kg, ABSA 36 mg/kg, oral once per day, six treatments.

Entries after “also recorded” stand apart in the source; their conditions may differ.

`NC(=O)c1cccc(N)c1` [3-AB, 3-aminobenzamide, reference compound]: the logD in data set [1] was found to be 0.33. Also, the “concentrations eliciting significant PARP inhibition” value in the data set on PARP is “millimolar”.

Compound `Nc1cccc2cnccc12` [5-AIQ, 5-aminoisoquinoline, reference compound] returned a pH-dependent lipophilicity (logD) in data set [1] of 3.16. The “concentrations eliciting significant PARP inhibition” value with PARP was “micromolar”.

Turning to `Nc1ccc(O)c(C(=O)O)c1` [5-ASA, 5-aminosalicylic acid], in data set [2], the “levels of iNOS and COX-2 proteins” value was “reduced the levels of iNOS and COX-2 proteins”.

Turning to `NC(=O)c1cccc(N=Nc2ccc(O)c(C(=O)O)c2)c1` [ABSA, 5-[(3-carbamoylphenyl)diazenyl]-2-hydroxybenzoic acid], in data set [1], the logD was -1.07. Besides, the “conversion rate in cecal contents” value in data set [3] is recorded as “slightly higher than that of the derivatives of 5-AIQ”. For the same compound, in the data set on Caco-2 cell monolayer, the “transport via the Caco-2 cell monolayer (cell permeability)” value was “less cell-permeable than 3-AB”. For the same compound, in data set [4] (ABSA 36 mg/kg (equivalent to 17 mg/kg of 3-AB) vs 3-AB 17 mg/kg, 2, 4, 8 h), the “amount of 3-AB delivered to the cecum” value was “much greater amount”. Besides, the “amount and temporal pattern of 5-ASA accumulation in the cecum” value in data set [4] (ABSA 36 mg/kg vs equimolar SSZ 50 mg/kg, 2, 4, 8 h) was “comparable”. In addition, in the data set with DNBS-induced rat colitis (second experiment, same doses), the “effectiveness against rat colitis (anticolitic effects)” value was “more effective against rat colitis than SSZ and AQSA-Glu”. Further, in the data set with DNBS-induced rat colitis (setting [5]), the “colonic damage and mucosal recovery” value was “greater effectiveness in healing colonic injury, including mucosa, than the other single-treatment groups; also recorded: as effective against colonic damage as the mixture”; the “inflammatory indices: MPO activity, CINC-3, iNOS and COX-2 in inflamed colon” value is recorded as “greater; also recorded: suppressed to a greater extent by ABSA than by SSZ or AQSA”.

In data set [1], `O=C(O)c1cc(N=Nc2cccc3cnccc23)ccc1O` [AQSA, 2-hydroxy-5-(isoquinolin-5-yldiazenyl)benzoic acid] displayed a logD of 0.31.

On to `O=C(O)C[C@H](NC(=O)c1cc(/N=N/c2cccc3cnccc23)ccc1O)C(=O)O` [AQSA-Asp], for which the logD in data set [1] is -1.77.

With `O=C(O)CC[C@H](NC(=O)c1cc(/N=N/c2cccc3cnccc23)ccc1O)C(=O)O` [AQSA-Glu], in data set [1], the pH-dependent lipophilicity (logD) is -1.83. Moreover, the “amount of 5-AIQ delivered to the cecum” value in data set [4] (AQSA-Glu 29.3 mg/kg (equivalent to 10 mg/kg of 5-AIQ) vs 5-AIQ 10.0 mg/kg, 2, 4, 8 h) is listed as “much greater amount”. Further, the “mucosal recovery (H&E staining of inflamed distal colon)” value in the data set with DNBS-induced rat colitis (first experiment, oral once per day for 6 days) is given as “greater mucosal recovery”. Besides, in the data set on DNBS-induced rat colitis (first experiment: AQSA-Glu 7.5 and 15 mg/kg (equivalent to 2.5 and 5 mg/kg of 5-AIQ) vs 5-AIQ 5 mg/kg, oral once per day for 6 days), the “colonic damage (colonic damage score)” value was “substantially improved colonic damage in a dose-dependent manner and were more effective in ameliorating colonic damage than 5-AIQ”. Also, the “MPO activity and proinflammatory mediators (CINC-3, iNOS, COX-2) in inflamed distal colon” value with DNBS-induced rat colitis (first experiment: AQSA-Glu low and high doses vs 5-AIQ 5 mg/kg, oral once per day for 6 days) is “more effective in suppressing MPO activity and reducing proinflammatory mediators in the inflamed distal colon than 5-AIQ”. Besides, the “effectiveness against rat colitis” value in the data set with DNBS-induced rat colitis (first experiment: AQSA-Glu low dose (2.5 mg/kg as 5-AIQ) vs 5-AIQ (5 mg/kg)) was “more effective against rat colitis than 5-AIQ”.
